Data from PubChem BioAssay (NCI).
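96-well plates; 48 h exposure; 5 concentrations. Endpoints by linear interpolation between flanking doses. Not reached: highest tested concentration assigned. At the TGI there is no net growth.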

Key:
Test in all cases: NCI tumour cell line growth inhibition, 48 h
[1] = tested on: SF-539 CNS
[2] = tested on: HS 578T breast
[3] = tested on: COLO 205 colon
[4] = tested on: SK-OV-3 ovarian
[5] = tested on: ACHN renal
[6] = tested on: MALME-3M melanoma
[7] = tested on: OVCAR-4 ovarian
[8] = tested on: M14 melanoma
[9] = tested on: CAKI-1 renal
[10] = tested on: OVCAR-3 ovarian
[11] = tested on: HOP-62 NSCLC
[12] = tested on: NCI-H522 lung
[13] = tested on: KM12 colon
[14] = tested on: LOX IMVI melanoma
[15] = tested on: HT29 colon
[16] = tested on: SN12C renal
[17] = tested on: MOLT-4 leukemia
[18] = tested on: SF-295 CNS
[19] = tested on: T-47D breast
[20] = tested on: SR leukemia
[21] = tested on: EKVX NSCLC
[22] = tested on: MDA-MB-231 breast
[23] = tested on: U251 CNS
[24] = tested on: RPMI-8226 leukemia
[25] = tested on: DU-145 prostate
[26] = tested on: UACC-62 melanoma
[27] = tested on: A498 renal
[28] = tested on: TK-10 renal
[29] = tested on: SF-268 CNS
[30] = tested on: NCI-H23 lung
[31] = tested on: MDA-MB-435
[32] = tested on: CCRF-CEM leukemia
[33] = tested on: OVCAR-5 ovarian
[34] = tested on: HOP-92 NSCLC
[35] = tested on: MDA-N
[36] = tested on: IGROV1 ovarian
[37] = tested on: HCT-15 colon
[38] = tested on: SK-MEL-2 melanoma
[39] = tested on: A549 NSCLC
[40] = tested on: OVCAR-8 ovarian
[41] = tested on: RXF 393 renal
[42] = tested on: K-562 leukemia
[43] = tested on: MCF7 breast
[44] = tested on: SNB-75 CNS
[45] = tested on: NCI-H226 lung
[46] = tested on: PC-3 prostate
[47] = tested on: 786-0 renal
[48] = tested on: UACC-257 melanoma
[49] = tested on: NCI/ADR-RES ovarian
[50] = tested on: HCT-116 colon
[51] = tested on: SW-620 colon
[52] = tested on: SNB-19 CNS
[53] = tested on: NCI-H460 lung
[54] = tested on: UO-31 renal
[55] = tested on: SK-MEL-28 melanoma
[56] = tested on: SK-MEL-5 melanoma
[57] = tested on: HL-60(TB) leukemia
[58] = tested on: HCC-2998 colon

COc1ccc(N(CN2C(=O)CCC2OC)C(C)=O)cc1 (configuration not stated)
TGI [1]: > 100 µM
TGI [2]: > 100 µM
TGI [3]: > 100 µM
TGI [4]: > 100 µM
TGI [5]: > 100 µM
TGI [6]: > 100 µM
TGI [7]: > 100 µM
TGI [8]: > 100 µM
TGI [9]: > 100 µM
TGI [10]: > 100 µM
TGI [11]: > 100 µM
TGI [12]: > 100 µM
TGI [13]: > 100 µM
TGI [14]: > 100 µM
TGI [15]: > 100 µM
TGI [16]: > 100 µM
TGI [17]: > 100 µM
TGI [18]: > 100 µM
TGI [19]: > 100 µM
TGI [20]: > 100 µM
TGI [21]: > 100 µM
TGI [22]: > 100 µM
TGI [23]: > 100 µM
TGI [24]: > 100 µM
TGI [25]: > 100 µM
TGI [26]: > 100 µM
TGI [27]: > 100 µM
TGI [28]: > 100 µM
TGI [29]: > 100 µM
TGI [30]: > 100 µM
TGI [31]: > 100 µM
TGI [32]: > 100 µM
TGI [33]: > 100 µM
TGI [34]: > 100 µM
TGI [35]: > 100 µM
TGI [36]: > 100 µM
TGI [37]: > 100 µM
TGI [38]: > 100 µM
TGI [39]: > 100 µM
TGI [40]: > 100 µM
TGI [41]: > 100 µM
TGI [42]: > 100 µM
TGI [43]: > 100 µM
TGI [44]: > 100 µM
TGI [45]: > 100 µM
TGI [46]: > 100 µM
TGI [47]: > 100 µM
TGI [48]: > 100 µM
TGI [49]: > 100 µM
TGI [50]: > 100 µM
TGI [51]: > 100 µM
TGI [52]: > 100 µM
TGI [53]: > 100 µM
TGI [54]: > 100 µM
TGI [55]: > 100 µM
TGI [56]: > 100 µM

Cc1oc2c(cc(O)c3ccccc32)c2cccc1-2
TGI [1]: > 100 µM
TGI [2]: > 100 µM
TGI [3]: > 100 µM
TGI [4]: > 100 µM
TGI [5]: > 100 µM
TGI [6]: > 100 µM
TGI [8]: 76.7 µM
TGI [9]: > 100 µM
TGI [10]: > 100 µM
TGI [11]: > 100 µM
TGI [57]: > 100 µM
TGI [13]: > 100 µM
TGI [58]: > 100 µM
TGI [14]: > 100 µM
TGI [15]: > 100 µM
TGI [16]: > 100 µM
TGI [17]: > 100 µM
TGI [18]: > 100 µM
TGI [19]: > 100 µM
TGI [20]: > 100 µM
TGI [21]: > 100 µM
TGI [22]: 34.8 µM
TGI [23]: > 100 µM
TGI [24]: > 100 µM
TGI [25]: > 100 µM
TGI [27]: > 100 µM
TGI [28]: > 100 µM
TGI [29]: > 100 µM
TGI [30]: > 100 µM
TGI [31]: > 100 µM
TGI [32]: > 100 µM
TGI [33]: > 100 µM
TGI [34]: > 100 µM
TGI [35]: > 100 µM
TGI [37]: > 100 µM
TGI [39]: > 100 µM
TGI [40]: > 100 µM
TGI [43]: > 100 µM
TGI [44]: > 100 µM
TGI [46]: > 100 µM
TGI [47]: > 100 µM
TGI [48]: > 100 µM
TGI [49]: > 100 µM
TGI [50]: > 100 µM
TGI [51]: > 100 µM
TGI [52]: > 100 µM
TGI [53]: > 100 µM
TGI [55]: > 100 µM
TGI [56]: > 100 µM

COc1cc(C2c3cc4c(cc3[C@@H](Nc3ccc(F)cc3)C3CO[C@@H](O)[C@H]23)OCO4)cc(OC)c1O (some centres not stated)
TGI [1]: 12.6 µM
TGI [2]: 14.7 µM
TGI [3]: > 25 µM
TGI [4]: > 25 µM
TGI [5]: 6.88 µM
TGI [7]: > 25 µM
TGI [8]: > 25 µM
TGI [11]: > 25 µM
TGI [12]: 15 µM
TGI [57]: 5.23 µM
TGI [13]: > 25 µM
TGI [58]: > 25 µM
TGI [16]: > 25 µM
TGI [17]: 4.43 µM
TGI [18]: 10.3 µM
TGI [19]: > 25 µM
TGI [21]: > 25 µM
TGI [22]: > 25 µM
TGI [23]: 8.47 µM
TGI [24]: > 25 µM
TGI [28]: > 25 µM
TGI [29]: > 25 µM
TGI [31]: > 25 µM
TGI [32]: 7.72 µM
TGI [33]: 12.8 µM
TGI [35]: > 25 µM
TGI [36]: > 25 µM
TGI [37]: > 25 µM
TGI [39]: > 25 µM
TGI [40]: > 25 µM
TGI [42]: > 25 µM
TGI [43]: > 25 µM
TGI [44]: > 25 µM
TGI [46]: > 25 µM
TGI [47]: > 25 µM
TGI [48]: > 25 µM
TGI [49]: > 25 µM
TGI [50]: > 25 µM
TGI [51]: > 25 µM
TGI [52]: > 25 µM
TGI [53]: > 25 µM
TGI [54]: 8.28 µM
TGI [55]: > 25 µM
TGI [56]: > 25 µM

Cc1ccc2c(/C=C/c3ccc(N(C)C)cc3)ccnc2c1C
TGI [1]: > 100 µM
TGI [2]: > 100 µM
TGI [3]: 55.6 µM
TGI [4]: 67.9 µM
TGI [5]: 96.7 µM
TGI [6]: 40.6 µM
TGI [8]: > 100 µM
TGI [9]: > 100 µM
TGI [10]: > 100 µM
TGI [11]: > 100 µM
TGI [12]: 63.9 µM
TGI [57]: 80.7 µM
TGI [13]: 72.3 µM
TGI [58]: 95.6 µM
TGI [14]: > 100 µM
TGI [15]: 62.3 µM
TGI [16]: > 100 µM
TGI [17]: > 100 µM
TGI [18]: > 100 µM
TGI [19]: > 100 µM
TGI [21]: > 100 µM
TGI [22]: > 100 µM
TGI [23]: > 100 µM
TGI [24]: 31 µM
TGI [25]: > 100 µM
TGI [26]: 73.1 µM
TGI [27]: > 100 µM
TGI [28]: 43.6 µM
TGI [29]: > 100 µM
TGI [30]: > 100 µM
TGI [31]: > 100 µM
TGI [32]: > 100 µM
TGI [33]: > 100 µM
TGI [34]: 57.1 µM
TGI [35]: > 100 µM
TGI [37]: > 100 µM
TGI [39]: > 100 µM
TGI [40]: 60.8 µM
TGI [41]: 48.4 µM
TGI [42]: > 100 µM
TGI [43]: 61.3 µM
TGI [44]: 38.5 µM
TGI [45]: > 100 µM
TGI [46]: 64.3 µM
TGI [47]: > 100 µM
TGI [48]: > 100 µM
TGI [49]: > 100 µM
TGI [50]: > 100 µM
TGI [51]: > 100 µM
TGI [52]: > 100 µM
TGI [53]: > 100 µM
TGI [54]: 54 µM
TGI [55]: 52.9 µM
TGI [56]: 43.2 µM

CC(CO)CCNc1ncnc2c1ncn2CCC(=O)O (configuration not stated)
TGI [1]: > 100 µM
TGI [2]: > 100 µM
TGI [3]: > 100 µM
TGI [4]: > 100 µM
TGI [5]: > 100 µM
TGI [6]: > 100 µM
TGI [7]: > 100 µM
TGI [8]: > 100 µM
TGI [9]: > 100 µM
TGI [10]: > 100 µM
TGI [11]: > 100 µM
TGI [12]: > 100 µM
TGI [57]: > 100 µM
TGI [13]: > 100 µM
TGI [14]: > 100 µM
TGI [15]: > 100 µM
TGI [16]: > 100 µM
TGI [17]: > 100 µM
TGI [18]: > 100 µM
TGI [19]: > 100 µM
TGI [20]: > 100 µM
TGI [21]: > 100 µM
TGI [22]: > 100 µM
TGI [24]: > 100 µM
TGI [25]: > 100 µM
TGI [26]: > 100 µM
TGI [27]: > 100 µM
TGI [28]: > 100 µM
TGI [29]: > 100 µM
TGI [30]: > 100 µM
TGI [31]: > 100 µM
TGI [32]: > 100 µM
TGI [33]: > 100 µM
TGI [34]: > 100 µM
TGI [35]: > 100 µM
TGI [36]: > 100 µM
TGI [39]: > 100 µM
TGI [40]: > 100 µM
TGI [41]: > 100 µM
TGI [42]: > 100 µM
TGI [43]: > 100 µM
TGI [44]: > 100 µM
TGI [45]: > 100 µM
TGI [46]: > 100 µM
TGI [47]: > 100 µM
TGI [48]: > 100 µM
TGI [49]: > 100 µM
TGI [50]: > 100 µM
TGI [51]: > 100 µM
TGI [52]: > 100 µM
TGI [53]: > 100 µM
TGI [54]: > 100 µM
TGI [55]: > 100 µM
TGI [56]: > 100 µM
